Test results taken from patent US8017611B2, “Pyridine and pyrazine derivatives -083” (AstraZeneca AB, priority 2007, dated 2011).
Marks after values point to notes of the source that are not given here.

What follows are compounds tested against T1, recombinant Axl tyrosine kinase (Homo sapiens, UniProt P30530) (assay: In vitro Axl kinase assay (AlphaScreen), Test (a)). Settings: 1 μM; mean calculated from a larger number of replicates than the first value.
T1 construct: encompassing amino acids 473 to 894 of Axl; GST (N); made in house; host or cells: SF126 insect cells
T1 sequence (P30530 473-894): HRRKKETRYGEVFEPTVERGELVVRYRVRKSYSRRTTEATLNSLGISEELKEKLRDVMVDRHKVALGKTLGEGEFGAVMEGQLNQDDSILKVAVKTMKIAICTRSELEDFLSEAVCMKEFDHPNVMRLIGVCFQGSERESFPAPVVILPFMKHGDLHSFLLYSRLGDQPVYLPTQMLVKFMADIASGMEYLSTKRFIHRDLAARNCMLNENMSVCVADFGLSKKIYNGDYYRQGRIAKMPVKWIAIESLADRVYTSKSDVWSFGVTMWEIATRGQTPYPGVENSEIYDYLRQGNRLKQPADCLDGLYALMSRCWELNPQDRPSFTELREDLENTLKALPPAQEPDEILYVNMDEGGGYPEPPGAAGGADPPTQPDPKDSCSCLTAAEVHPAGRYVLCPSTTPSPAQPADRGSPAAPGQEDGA
Format: biochemical
Description: Test compounds were prepared as 10 mM stock solutions in dimethylsulphoxide (DMSO) and diluted in DMSO as required. Aliquots (120 nl) of compound dilutions were filled into the wells of a Greiner 384-well low volume (LV) white polystyrene plate (Greiner Bio-one) using acoustic dispensing (Labcyte Echo 550). A 10 μl mixture of recombinant purified Axl enzyme, biotinylated peptide substrate (Biotin poly-GAT; CisBio, Catalogue No. 61GATBLB), 0.2 μM adenosine triphosphate (ATP) and a buffer solution [comprising 20 mM Tris-HCl pH 7.5 buffer, 0.01% v/v Tween, 5 mM dithiothreitol (DTT) and 10 mM manganese chloride] was incubated with the compounds at room temperature for 20 minutes.
Control wells that produced a minimum signal corresponding to 100% inhibited enzyme were created by adding 10 μM of Staurosporine.
The percentage kinase inhibition value is the percentage of Axl tyrosine kinase activity inhibited by the test compound at a concentration of 1 μM.

Row | SMILES | % Axl tyrosine kinase inhibition at 1 μM concentration (second value, †)
1 | Nc1ncc(-c2cccc(N3CCOCC3)c2)cc1-c1nc2cnccc2o1 [Example 8A.4] | 86.6%
2 | Nc1ncc(-c2ccc(CN3CCOCC3)cc2)cc1-c1nc2cnccc2o1 [Example 8A.18] | 99.0%

Same assay, conditions: test compound at 1 μM; first value quoted

Row | SMILES | % Axl tyrosine kinase inhibition at 1 μM concentration
3 | CCN1CCC(n2cc(-c3cnc(N)c(-c4nc5ccccc5o4)c3)cn2)CC1 [Example 4.1] | 100.0%
4 | CN1CCC(n2cc(-c3cnc(N)c(-c4nc5cc(F)ccc5o4)c3)cn2)CC1 [Example 7.1] | 99.9%
5 | CC(C)c1ccc2nc(-c3cc(-c4cnn(C5CCN(C)CC5)c4)cnc3N)oc2c1 [Example 7.4] | 99.6%
6 | CN1CCC(n2cc(-c3cnc(N)c(-c4nc5cc(Br)ccc5o4)c3)cn2)CC1 [Example 7.5] | 99.1%
7 | CN1CCC(n2cc(-c3cnc(N)c(-c4nc5c(F)cc(F)cc5o4)c3)cn2)CC1 [Example 7.6] | 99.9%
8 | CN1CCC(n2cc(-c3cnc(N)c(-c4nc5ccc(Cl)cc5o4)c3)cn2)CC1 [Example 7.7] | 99.0%
9 | Cc1ccc2nc(-c3cc(-c4cnn(C5CCN(C)CC5)c4)cnc3N)oc2c1 [Example 7.9] | 99.7%
10 | CN1CCC(n2cc(-c3cnc(N)c(-c4nc5ccc(OC(F)(F)F)cc5o4)c3)cn2)CC1 [Example 7.10] | 95.7%
11 | CN1CCC(n2cc(-c3cnc(N)c(-c4nc5cc(C(F)(F)F)ccc5o4)c3)cn2)CC1 [Example 7.11] | 98.1%
12 | Nc1ncc(-c2cccc(CN3CCCC3)c2)cc1-c1nc2cnccc2o1 [Example 8A.1] | 95.6%
13 | Nc1ncc(-c2ccc(S(=O)(=O)NCCO)cc2)cc1-c1nc2cnccc2o1 [Example 8A.2] | 99.2%
14 | Nc1ncc(-c2cccc(N3CCOCC3)c2)cc1-c1nc2cnccc2o1 [Example 8A.4] | 89.8%
15 | Nc1ncc(-c2ccc(CO)s2)cc1-c1nc2cnccc2o1 [Example 8A.5] | 96.8%
16 | CNS(=O)(=O)c1cccc(-c2cnc(N)c(-c3nc4cnccc4o3)c2)c1 [Example 8A.6] | 97.7%
17 | Nc1ncc(-c2cccc(C(=O)NC3CC3)c2)cc1-c1nc2cnccc2o1 [Example 8A.7] | 87.8%
18 | Nc1ncc(-c2ccc(C(=O)N3CCC(O)CC3)cc2)cc1-c1nc2cnccc2o1 [Example 8A.8] | 97.1%
19 | NC(=O)c1ccc(-c2cnc(N)c(-c3nc4cnccc4o3)c2)cc1 [Example 8A.9] | 98.7%
20 | Cc1ccc(S(=O)(=O)N2CCOCC2)cc1-c1cnc(N)c(-c2nc3cnccc3o2)c1 [Example 8A.10] | 13.1***** %
21 | N#Cc1cccc(-c2cnc(N)c(-c3nc4cnccc4o3)c2)c1 [Example 8A.11] | 89.6%
22 | Nc1ncc(-c2ccc(C(=O)N3CCOCC3)cc2)cc1-c1nc2cnccc2o1 [Example 8A.12] | 97.8%
23 | Nc1ncc(-c2cccc(S(=O)(=O)N3CCOCC3)c2)cc1-c1nc2cnccc2o1 [Example 8A.13] | 71.3%
24 | N#CCc1ccc(-c2cnc(N)c(-c3nc4cnccc4o3)c2)cc1 [Example 8A.16] | 99.4%
25 | CN(C)CCCNC(=O)c1ccc(-c2cnc(N)c(-c3nc4cnccc4o3)c2)cc1 [Example 8A.17] | 99.8%
26 | Nc1ncc(-c2ccc(CN3CCOCC3)cc2)cc1-c1nc2cnccc2o1 [Example 8A.18] | 98.9%
27 | CN1CCN(C(=O)c2cccc(-c3cnc(N)c(-c4nc5cnccc5o4)c3)c2)CC1 [Example 8A.19] | 94.3%

Row | SMILES | % Axl tyrosine kinase inhibition at 1 μM concentration
28 | Nc1ncc(-c2cccc(CN3CCCCC3)c2)cc1-c1nc2cnccc2o1 [Example 8A.20] | 95.2%
29 | Nc1ncc(-c2cccc(N3CCCCC3)c2)cc1-c1nc2cnccc2o1 [Example 8A.21] | 85.8%
30 | Nc1ncc(-c2cccc(C(=O)NCCN3CCCC3)c2)cc1-c1nc2cnccc2o1 [Example 8A.22] | 95.3%
31 | NCc1ccc(-c2cnc(N)c(-c3nc4cnccc4o3)c2)cc1 [Example 8A.23] | 99.1%
32 | CN(C)CCNC(=O)c1cccc(-c2cnc(N)c(-c3nc4cnccc4o3)c2)c1 [Example 8A.24] | 95.6%
33 | Nc1ncc(-c2ccc(C(=O)NCCO)cc2)cc1-c1nc2cnccc2o1 [Example 8A.25] | 98.7%
34 | Nc1ncc(-c2cccc(NC(=O)C3CCNCC3)c2)cc1-c1nc2cnccc2o1 [Example 8A.26] | 97.9%
35 | NCc1cccc(-c2cnc(N)c(-c3nc4cnccc4o3)c2)c1 [Example 8A.27] | 98.6%
36 | Nc1ncc(-c2cccc(-c3ccn[nH]3)c2)cc1-c1nc2cnccc2o1 [Example 8A.28] | 97.5%
37 | N#Cc1cccc(-c2cnc(N)c(-c3nc4cccnc4o3)c2)c1 [Example 9A.1] | 89.8%
38 | Nc1ncc(-c2ccc(C(=O)NCCO)cc2)cc1-c1nc2cccnc2o1 [Example 9A.2] | 97.0%
39 | CC(C)(C)OC(=O)N1CCC(C(=O)Nc2cccc(-c3cnc(N)c(-c4nc5cccnc5o4)c3)c2)CC1 [Example 9A.3] | 73.4%
40 | CN(C)CCNC(=O)c1cccc(-c2cnc(N)c(-c3nc4cccnc4o3)c2)c1 [Example 9A.5] | 75.2%
41 | Nc1ncc(-c2ccc(C(=O)N3CCC(O)CC3)cc2)cc1-c1nc2cccnc2o1 [Example 9A.6] | 95.6%
42 | CCN(CC)CCNC(=O)c1cccc(-c2cnc(N)c(-c3nc4cccnc4o3)c2)c1 [Example 9A.7] | 91.7%
43 | Nc1ncc(-c2cccc(CN3CCCC3)c2)cc1-c1nc2cccnc2o1 [Example 9A.8] | 96.5%
44 | Nc1ncc(-c2cccc(CN3CCCCC3)c2)cc1-c1nc2cccnc2o1 [Example 9A.9] | 95.3%
45 | CN(C)CCCNC(=O)c1ccc(-c2cnc(N)c(-c3nc4cccnc4o3)c2)cc1 [Example 9A.11] | 98.8%
46 | NCc1ccc(-c2cnc(N)c(-c3nc4cccnc4o3)c2)cc1 [Example 9A.13] | 98.3%
47 | Nc1ncc(-c2ccc(S(=O)(=O)NCCO)cc2)cc1-c1nc2cccnc2o1 [Example 9A.14] | 97.0%
48 | N#CCc1ccc(-c2cnc(N)c(-c3nc4cccnc4o3)c2)cc1 [Example 9A.16] | 97.7%
49 | Nc1ncc(-c2cccc(C(=O)NC3CC3)c2)cc1-c1nc2cccnc2o1 [Example 9A.17] | 73.2%
50 | CN1CCN(C(=O)c2cccc(-c3cnc(N)c(-c4nc5cccnc5o4)c3)c2)CC1 [Example 9A.18] | 80.8%
51 | Nc1ncc(-c2ccc(CO)s2)cc1-c1nc2cccnc2o1 [Example 9A.19] | 95.6%
52 | Nc1ncc(-c2ccc(CN3CCOCC3)cc2)cc1-c1nc2cccnc2o1 [Example 9A.21] | 95.6%

Same assay, conditions: test compound at 1 μM; first value quoted; read-out: % Axl tyrosine kinase inhibition at 1 μM concentration

Row | SMILES | inhibition at 1 µM
53 | CC(C)N1CCC(n2cc(-c3cnc(N)c(-c4nc5ccccc5o4)c3)cn2)CC1 [Example 5, 3-(1,3-Benzoxazol-2-yl)-5-[1-(1-isopropyl-4-piperidyl)pyrazol-4-yl]pyridin-2-amine] | 100%
54 | CN1CCC(n2cc(-c3cnc(N)c(-c4nc5c(F)cccc5o4)c3)cn2)CC1 [Example 6, 3-(4-Fluoro-1,3-benzoxazol-2-yl)-5-[1-(1-methyl-4-piperidyl)pyrazol-4-yl]pyridin-2-amine] | 99.9%
55 | Nc1ncc(-c2cnn(C3CCNCC3)c2)cc1-c1nc2cnccc2o1 [Example 8, 3-Oxazolo[4,5-c]pyridin-2-yl-5-[1-(4-piperidyl)pyrazol-4-yl]pyridin-2-amine] | 99.2%
56 | Nc1ncc(-c2cnn(C3CCNCC3)c2)cc1-c1nc2cccnc2o1 [Example 9, 3-Oxazolo[5,4-b]pyridin-2-yl-5-[1-(4-piperidyl)pyrazol-4-yl]pyridin-2-amine] | 98.8%

Same assay, conditions: test compound at 30 μM

Row | SMILES | % of Axl tyrosine kinase activity inhibited at a concentration of 30 μM
57 | CS(=O)(=O)c1cccc(-c2cnc(N)c(-c3nc4cnccc4o3)c2)c1 [Example 8A.3] | ^###the compound disclosed in Example 8A.3 inhibited 100% of Axl tyrosine kinase activity at a concentration of 30 μM.
58 | Cc1ccc(S(=O)(=O)N2CCOCC2)cc1-c1cnc(N)c(-c2nc3cnccc3o2)c1 [Example 8A.10] | *****the compound disclosed in Example 8A.10 inhibited 79.5% of Axl tyrosine kinase activity at a concentration of 30 μM.
